Test results published in ChEMBL document CHEMBL3784933, “Synthesis and antitumor evaluation of trimethoxyanilides based on 4(3H)-quinazolinone scaffolds” (2016).

Columns and labels:
Assay type in all cases: functional
K562 = assay: Cytotoxicity against human K562 cells assessed as growth inhibition at 10 uM after 48 hrs by SRB assay; details: K562, 48 h, read-out: GI
[1] = Cytotoxicity against human MOLT4 cells assessed as growth inhibition at 10 uM after 48 hrs by SRB assay; details: MOLT-4, 48 h, read-out: GI
[2] = Cytotoxicity against human RPMI8226 cells assessed as growth inhibition at 10 uM after 48 hrs by SRB assay; details: RPMI-8226, 48 h, read-out: GI
A549 = assay: Cytotoxicity against human A549 cells assessed as growth inhibition at 10 uM after 48 hrs by SRB assay; details: A549, 48 h, read-out: GI
EKVX = assay: Cytotoxicity against human EKVX cells assessed as growth inhibition at 10 uM after 48 hrs by SRB assay; details: read-out: GI
[3] = Cytotoxicity against human HOP92 cells assessed as growth inhibition at 10 uM after 48 hrs by SRB assay; details: HOP-92, 48 h, read-out: GI
NCI-H226 = assay: Cytotoxicity against human NCI-H226 cells assessed as growth inhibition at 10 uM after 48 hrs by SRB assay; details: NCI-H226, 48 h, read-out: GI
NCI-H23 = assay: Cytotoxicity against human NCI-H23 cells assessed as growth inhibition at 10 uM after 48 hrs by SRB assay; details: NCI-H23, 48 h, read-out: GI
NCI-H522 = assay: Cytotoxicity against human NCI-H522 cells assessed as growth inhibition at 10 uM after 48 hrs by SRB assay; details: NCI-H522, 48 h, read-out: GI
[4] = Cytotoxicity against human HCT116 cells assessed as growth inhibition at 10 uM after 48 hrs by SRB assay; details: HCT-116, 48 h, read-out: GI
[5] = Cytotoxicity against human HCT15 cells assessed as growth inhibition at 10 uM after 48 hrs by SRB assay; details: HCT-15, 48 h, read-out: GI
KM12 = assay: Cytotoxicity against human KM12 cells assessed as growth inhibition at 10 uM after 48 hrs by SRB assay; details: KM12, 48 h, read-out: GI
[6] = Cytotoxicity against human SF268 cells assessed as growth inhibition at 10 uM after 48 hrs by SRB assay; details: SF-268, 48 h, read-out: GI
[7] = Cytotoxicity against human SF295 cells assessed as growth inhibition at 10 uM after 48 hrs by SRB assay; details: SF-295, 48 h, read-out: GI
[8] = Cytotoxicity against human SNB19 cells assessed as growth inhibition at 10 uM after 48 hrs by SRB assay; details: SNB-19, 48 h, read-out: GI
[9] = Cytotoxicity against human SNB75 cells assessed as growth inhibition at 10 uM after 48 hrs by SRB assay; details: SNB-75, 48 h, read-out: GI
U-251 = assay: Cytotoxicity against human U251 cells assessed as growth inhibition at 10 uM after 48 hrs by SRB assay; details: U-251, 48 h, read-out: GI
[10] = Cytotoxicity against human LOXIMVI cells assessed as growth inhibition at 10 uM after 48 hrs by SRB assay; details: LOX IMVI, read-out: GI
Malme-3M = assay: Cytotoxicity against human MALME-3M cells assessed as growth inhibition at 10 uM after 48 hrs by SRB assay; details: read-out: GI
M14 = assay: Cytotoxicity against human M14 cells assessed as growth inhibition at 10 uM after 48 hrs by SRB assay; details: M14, 48 h, read-out: GI
MDA-MB-435 = assay: Cytotoxicity against human MDA-MB-435 cells assessed as growth inhibition at 10 uM after 48 hrs by SRB assay; details: MDA-MB-435, 48 h, read-out: GI
SK-MEL-5 = assay: Cytotoxicity against human SK-MEL-5 cells assessed as growth inhibition at 10 uM after 48 hrs by SRB assay; details: SK-MEL-5, 48 h, read-out: GI
[11] = Cytotoxicity against human UACC62 cells assessed as growth inhibition at 10 uM after 48 hrs by SRB assay; details: UACC-62, 48 h, read-out: GI
[12] = Cytotoxicity against human IGROV1 cells assessed as growth inhibition at 10 uM after 48 hrs by SRB assay; details: IGROV-1, 48 h, read-out: GI
[13] = Cytotoxicity against human OVCAR3 cells assessed as growth inhibition at 10 uM after 48 hrs by SRB assay; details: OVCAR-3, 48 h, read-out: GI
[14] = Cytotoxicity against human OVCAR4 cells assessed as growth inhibition at 10 uM after 48 hrs by SRB assay; details: OVCAR-4, 48 h, read-out: GI
[15] = Cytotoxicity against human OVCAR5 cells assessed as growth inhibition at 10 uM after 48 hrs by SRB assay; details: OVCAR-5, 48 h, read-out: GI
[16] = Cytotoxicity against human OVCAR8 cells assessed as growth inhibition at 10 uM after 48 hrs by SRB assay; details: OVCAR-8, 48 h, read-out: GI
[17] = Cytotoxicity against human NCI-ADR-RES cells assessed as growth inhibition at 10 uM after 48 hrs by SRB assay; details: read-out: GI
[18] = Cytotoxicity against human SKOV3 cells assessed as growth inhibition at 10 uM after 48 hrs by SRB assay; details: SK-OV-3, 48 h, read-out: GI
786-0 = assay: Cytotoxicity against human 786-0 cells assessed as growth inhibition at 10 uM after 48 hrs by SRB assay; details: 786-0, 48 h, read-out: GI
A498 = assay: Cytotoxicity against human A498 cells assessed as growth inhibition at 10 uM after 48 hrs by SRB assay; details: A498, 48 h, read-out: GI
ACHN = assay: Cytotoxicity against human ACHN cells assessed as growth inhibition at 10 uM after 48 hrs by SRB assay; details: read-out: GI
[19] = Cytotoxicity against human Caki1 cells assessed as growth inhibition at 10 uM after 48 hrs by SRB assay; details: CAKI-1, 48 h, read-out: GI
[20] = Cytotoxicity against human RXF393 cells assessed as growth inhibition at 10 uM after 48 hrs by SRB assay; details: RXF 393, 48 h, read-out: GI
SN12C = assay: Cytotoxicity against human SN12C cells assessed as growth inhibition at 10 uM after 48 hrs by SRB assay; details: read-out: GI
[21] = Cytotoxicity against human UO31 cells assessed as growth inhibition at 10 uM after 48 hrs by SRB assay; details: UO-31, 48 h, read-out: GI
[22] = Cytotoxicity against human PC3 cells assessed as growth inhibition at 10 uM after 48 hrs by SRB assay; details: PC-3, 48 h, read-out: GI
MCF7 = assay: Cytotoxicity against human MCF7 cells assessed as growth inhibition at 10 uM after 48 hrs by SRB assay; details: MCF7, 48 h, read-out: GI
MDA-MB-231 = assay: Cytotoxicity against human MDA-MB-231 cells assessed as growth inhibition at 10 uM after 48 hrs by SRB assay; details: MDA-MB-231, 48 h, read-out: GI
[23] = Cytotoxicity against human Hs 578T cells assessed as growth inhibition at 10 uM after 48 hrs by SRB assay; details: read-out: GI
T47D = assay: Cytotoxicity against human T47D cells assessed as growth inhibition at 10 uM after 48 hrs by SRB assay; details: read-out: GI
[24] = Cytotoxicity against human NCI-H322 cells assessed as growth inhibition at 10 uM after 48 hrs by SRB assay; details: NCI-H322, 48 h, read-out: GI

## COc1cc(NC(=O)CSc2nc3ccc(Cl)cc3c(=O)n2-c2ccc(F)cc2)cc(OC)c1OC
K562
  inhibition of growth at 10 µM: 20%
[1]
  inhibition of growth at 10 µM: 39%
[2]
  inhibition of growth at 10 µM: 61%
A549
  inhibition of growth at 10 µM: 17%
EKVX
  inhibition of growth at 10 µM: 33%
[3]
  inhibition of growth at 10 µM: 64%
NCI-H226
  inhibition of growth at 10 µM: 17%
NCI-H23
  inhibition of growth at 10 µM: 15%
NCI-H522
  inhibition of growth at 10 µM: 21%
[4]
  inhibition of growth at 10 µM: 21%
[5]
  inhibition of growth at 10 µM: 16%
KM12
  inhibition of growth at 10 µM: 15%
[6]
  inhibition of growth at 10 µM: 21%
[7]
  inhibition of growth at 10 µM: 20%
[8]
  inhibition of growth at 10 µM: 18%
[9]
  inhibition of growth at 10 µM: 28%
U-251
  inhibition of growth at 10 µM: 18%
[10]
  inhibition of growth at 10 µM: 27%
Malme-3M
  inhibition of growth at 10 µM: 15%
M14
  inhibition of growth at 10 µM: 16%
MDA-MB-435
  inhibition of growth at 10 µM: 10%
SK-MEL-5
  inhibition of growth at 10 µM: 27%
[11]
  inhibition of growth at 10 µM: 29%
[12]
  inhibition of growth at 10 µM: 14%
[13]
  inhibition of growth at 10 µM: 20%
[14]
  inhibition of growth at 10 µM: 23%
[15]
  inhibition of growth at 10 µM: 12%
[16]
  inhibition of growth at 10 µM: 12%
[17]
  inhibition of growth at 10 µM: 19%
[18]
  inhibition of growth at 10 µM: 13%
786-0
  inhibition of growth at 10 µM: 25%
A498
  inhibition of growth at 10 µM: 66%
ACHN
  inhibition of growth at 10 µM: 15%
[19]
  inhibition of growth at 10 µM: 29%
[20]
  inhibition of growth at 10 µM: 20%
SN12C
  inhibition of growth at 10 µM: 22%
[21]
  inhibition of growth at 10 µM: 60%
[22]
  inhibition of growth at 10 µM: 27%
MCF7
  inhibition of growth at 10 µM: 13%
MDA-MB-231
  inhibition of growth at 10 µM: 34%
[23]
  inhibition of growth at 10 µM: 26%
T47D
  inhibition of growth at 10 µM: 28%
[24]
  inhibition of growth at 10 µM: 14%
